Results as given in article PMC8632988, “Inhibition of SYK and cSrc kinases can protect bone and cartilage in preclinical models of osteoarthritis and rheumatoid arthritis” (Scientific Reports, 2021).
Several values for one entry are separate records, joined by “and”; a condition that tells them apart may be missing. Identical values can stand only once.

Tested on: DBA/1 mice, CIA model
Assay: Collagen-induced arthritis model in mice
Type: in vivo, mouse
Settings: QD
Method: Collagen-induced arthritis (CIA) model was performed at Bolder BioPATH, USA. Study design and animal usage was approved by Bolder BioPATH’s Institutional Animal Care and Use Committee. CIA was induced in 6–7 week old male DBA/1 mice with body weight of 15–26 g (Harlan, Inc) by intradermal injection of Freund’s Complete Adjuvant (Difco) containing bovine type II collagen (Bolder BioPATH) on day 0 and again on day 21 according to the standard protocol. […] After that mice were randomized into six groups: a control group of four, vehicle group and four treatment groups of ten mice each. […] Each paw was scored daily for inflammation. Therapeutic and prophylactic paws were considered. At study termination mice were euthanized by CO2 inhalation followed by cervical dislocation. Fore paws, hind paws, and knees were removed for microscopy.
Mice were weighed on arthritis days 1, 3, 5, 7, 9, and 11 (prior to necropsy). Daily clinical scores were given for each of the paws (right front, left front, right rear, left rear) on days 1–11 using the following criteria:
After 1–2 days in fixative and 4–5 days in 5% formic acid for decalcification, tissues were trimmed, processed for paraffin embedding, sectioned at 8 µm and stained with toluidine blue. Hind paws and knees were embedded and sectioned in the frontal plane. Two joints from each animal were processed for histopathology evaluation. The joints were then scored by two independent readers as indicated below. When scoring, severity of changes as well as number of individual joints affected were considered. When only 1–3 joints of the paws or ankles out of a possibility of numerous metacarpal/metatarsal/digit or tarsal/tibiotarsal joints were affected, an arbitrary assignment of a maximum score of 1, 2 or 3 for parameters below was given depending on severity of changes. If more than 3 joints were involved, the criteria below were applied to the most severely affected/majority of joints.

## CN(Cc1cnc2nc(N)nc(N)c2n1)c1ccc(C(=O)N[C@@H](CCC(=O)O)C(=O)O)cc1 [MTX, methotrexate, reference compound]
1.5 mg/kg PO
  % inhibition to Vehicle, Paw Score Total AUC Sum (d1-11): 12%
1.5 mg/kg PO, group Mean
  Paw Score Total AUC Sum (d1-11): 28.46
1.5 mg/kg PO, individual animals
  Paw Score Total AUC Sum (d1-11): 19.25 and 28.75 and 18.25 and 23.38 and 30.63 and 34.25 and 31.00 and 24.88 and 33.25 and 41.00
Day 1, 1.5 mg/kg PO
  % inhibition to Vehicle, Average Paw Score: 0%
Day 1, 1.5 mg/kg PO, group Mean
  Average Paw Score Per Arthritis Day (All Paws): 0.80
Day 1, 1.5 mg/kg PO, individual animals, 1.5 mg/kg
  Average Paw Score Per Arthritis Day (All Paws): 0.50 and 1.00 and 1.50
Day 2, 1.5 mg/kg PO
  % inhibition to Vehicle, Average Paw Score: 19%
Day 2, 1.5 mg/kg PO, group Mean
  Average Paw Score Per Arthritis Day (All Paws): 1.48
Day 2, 1.5 mg/kg PO, individual animals, 1.5 mg/kg
  Average Paw Score Per Arthritis Day (All Paws): 0.50 and 1.25 and 1.50 and 1.00 and 2.00 and 1.75 and 2.50
Day 3, 1.5 mg/kg PO
  % inhibition to Vehicle, Average Paw Score: 20%
Day 3, 1.5 mg/kg PO, group Mean
  Average Paw Score Per Arthritis Day (All Paws): 2.13
Day 3, 1.5 mg/kg PO, individual animals, 1.5 mg/kg
  Average Paw Score Per Arthritis Day (All Paws): 0.75 and 1.75 and 2.00 and 2.50 and 2.75 and 3.00
Day 4, 1.5 mg/kg PO
  % inhibition to Vehicle, Average Paw Score: 10%
Day 4, 1.5 mg/kg PO, group Mean
  Average Paw Score Per Arthritis Day (All Paws): 2.85
Day 4, 1.5 mg/kg PO, individual animals, 1.5 mg/kg
  Average Paw Score Per Arthritis Day (All Paws): 1.75 and 3.00 and 2.00 and 2.25 and 2.50 and 2.75 and 4.00
Day 5, 1.5 mg/kg PO
  % inhibition to Vehicle, Average Paw Score: 9%
Day 5, 1.5 mg/kg PO, group Mean
  Average Paw Score Per Arthritis Day (All Paws): 3.15
Day 5, 1.5 mg/kg PO, individual animals, 1.5 mg/kg
  Average Paw Score Per Arthritis Day (All Paws): 2.25 and 2.00 and 4.00 and 2.75 and 4.75
Day 6, 1.5 mg/kg PO
  % inhibition to Vehicle, Average Paw Score: 11%
Day 6, 1.5 mg/kg PO, individual animals, 1.5 mg/kg
  Average Paw Score Per Arthritis Day (All Paws): 2.50 and 2.00 and 2.25 and 4.00 and 2.75 and 4.75
Day 7, 1.5 mg/kg PO
  % inhibition to Vehicle, Average Paw Score: 12%
Day 7, 1.5 mg/kg PO, individual animals, 1.5 mg/kg
  Average Paw Score Per Arthritis Day (All Paws): 2.50 and 2.00 and 2.25 and 4.00 and 2.75 and 4.75
Day 8, 1.5 mg/kg PO
  % inhibition to Vehicle, Average Paw Score: 13%
Day 8, 1.5 mg/kg PO, individual animals, 1.5 mg/kg
  Average Paw Score Per Arthritis Day (All Paws): 2.50 and 2.00 and 3.75 and 4.00 and 2.75 and 4.75
Day 9, 1.5 mg/kg PO
  % inhibition to Vehicle, Average Paw Score: 13%
Day 9, 1.5 mg/kg PO, individual animals, 1.5 mg/kg
  Average Paw Score Per Arthritis Day (All Paws): 2.50 and 2.00 and 3.00 and 4.00 and 4.25 and 2.75 and 3.75 and 5.00
Day 10, 1.5 mg/kg PO
  % inhibition to Vehicle, Average Paw Score: 12%
Day 10, 1.5 mg/kg PO, individual animals, 1.5 mg/kg
  Average Paw Score Per Arthritis Day (All Paws): 2.50 and 2.00 and 4.75 and 4.50 and 2.75 and 4.00 and 5.00
Day 11, 1.5 mg/kg PO
  % inhibition to Vehicle, Average Paw Score: 12%
Day 11, 1.5 mg/kg PO, individual animals, 1.5 mg/kg
  Average Paw Score Per Arthritis Day (All Paws): 2.50 and 2.00 and 4.75 and 4.50 and 2.75 and 4.00 and 5.00
MTX 1.5 mg/kg PO
  % inhibition to Vehicle, Total AUC Sum (d1-11): 21%
MTX 1.5 mg/kg PO, Day 1, group mean
  Summed Prophylactic (Non-Enrollment) Paw Score: 0.00
MTX 1.5 mg/kg PO, Day 1, individual animals
  Summed Prophylactic (Non-Enrollment) Paw Score: 0
MTX 1.5 mg/kg PO, Day 2
  % inhibition to Vehicle, Summed Prophylactic (Non-Enrollment) Paw Score: 38%
MTX 1.5 mg/kg PO, Day 2, group mean
  Summed Prophylactic (Non-Enrollment) Paw Score: 1.60
MTX 1.5 mg/kg PO, Day 2, individual animals
  Summed Prophylactic (Non-Enrollment) Paw Score: 0 and 2 and 1 and 5 and 4
MTX 1.5 mg/kg PO, Day 3
  % inhibition to Vehicle, Summed Prophylactic (Non-Enrollment) Paw Score: 30%
MTX 1.5 mg/kg PO, Day 3, group mean
  Summed Prophylactic (Non-Enrollment) Paw Score: 3.30
MTX 1.5 mg/kg PO, Day 3, individual animals
  Summed Prophylactic (Non-Enrollment) Paw Score: 0 and 3 and 1 and 4 and 7 and 8 and 5 and 2
MTX 1.5 mg/kg PO, Day 4
  % inhibition to Vehicle, Summed Prophylactic (Non-Enrollment) Paw Score: 20%
MTX 1.5 mg/kg PO, Day 4, group mean
  Summed Prophylactic (Non-Enrollment) Paw Score: 5.10
MTX 1.5 mg/kg PO, Day 4, individual animals
  Summed Prophylactic (Non-Enrollment) Paw Score: 3 and 4 and 1 and 6 and 10
MTX 1.5 mg/kg PO, Day 5
  % inhibition to Vehicle, Summed Prophylactic (Non-Enrollment) Paw Score: 19%
MTX 1.5 mg/kg PO, Day 5, group mean
  Summed Prophylactic (Non-Enrollment) Paw Score: 5.90
MTX 1.5 mg/kg PO, Day 5, individual animals
  Summed Prophylactic (Non-Enrollment) Paw Score: 5 and 4 and 1 and 9 and 12 and 10 and 6
MTX 1.5 mg/kg PO, Day 6
  % inhibition to Vehicle, Summed Prophylactic (Non-Enrollment) Paw Score: 21%
MTX 1.5 mg/kg PO, Day 6, group mean
  Summed Prophylactic (Non-Enrollment) Paw Score: 6.00
MTX 1.5 mg/kg PO, Day 6, individual animals
  Summed Prophylactic (Non-Enrollment) Paw Score: 6 and 4 and 1 and 9 and 12 and 10
MTX 1.5 mg/kg PO, Day 7
  % inhibition to Vehicle, Summed Prophylactic (Non-Enrollment) Paw Score: 22%
MTX 1.5 mg/kg PO, Day 7, group mean
  Summed Prophylactic (Non-Enrollment) Paw Score: 6.10
MTX 1.5 mg/kg PO, Day 7, individual animals
  Summed Prophylactic (Non-Enrollment) Paw Score: 6 and 5 and 4 and 1 and 9 and 12 and 10
MTX 1.5 mg/kg PO, Day 8
  % inhibition to Vehicle, Summed Prophylactic (Non-Enrollment) Paw Score: 22%
MTX 1.5 mg/kg PO, Day 8, group mean
  Summed Prophylactic (Non-Enrollment) Paw Score: 6.30
MTX 1.5 mg/kg PO, Day 8, individual animals
  Summed Prophylactic (Non-Enrollment) Paw Score: 6 and 5 and 4 and 2 and 10 and 12
MTX 1.5 mg/kg PO, Day 9
  % inhibition to Vehicle, Summed Prophylactic (Non-Enrollment) Paw Score: 20%
MTX 1.5 mg/kg PO, Day 9, group mean
  Summed Prophylactic (Non-Enrollment) Paw Score: 6.80
MTX 1.5 mg/kg PO, Day 9, individual animals
  Summed Prophylactic (Non-Enrollment) Paw Score: 6 and 5 and 4 and 3 and 11 and 13 and 10 and 7
MTX 1.5 mg/kg PO, Day 10
  % inhibition to Vehicle, Summed Prophylactic (Non-Enrollment) Paw Score: 16%
MTX 1.5 mg/kg PO, Day 10, group mean
  Summed Prophylactic (Non-Enrollment) Paw Score: 7.40
MTX 1.5 mg/kg PO, Day 10, individual animals
  Summed Prophylactic (Non-Enrollment) Paw Score: 6 and 5 and 4 and 14 and 10 and 8
MTX 1.5 mg/kg PO, Day 11
  % inhibition to Vehicle, Summed Prophylactic (Non-Enrollment) Paw Score: 16%
